From article PMC6736837, “^18F-labelled triazolyl-linked argininamides targeting the neuropeptide Y Y1R for PET imaging of mammary carcinoma” (Scientific Reports, 2019)
Entries after “also recorded” stand apart in the source; their conditions may differ. Each block holds one compound with its values, some of them ahead of it.

Assays:
hY5R = target: T1, hY5R (Homo sapiens, UniProt Q15761); settings: read-out: Kd of the radioligand (Y5R); cited from earlier work
T1 construct: expressed in transfected cells; host or cells: HEC-1b cells (HEC-1b hY5R)
T1 sequence (Q15761 1-445): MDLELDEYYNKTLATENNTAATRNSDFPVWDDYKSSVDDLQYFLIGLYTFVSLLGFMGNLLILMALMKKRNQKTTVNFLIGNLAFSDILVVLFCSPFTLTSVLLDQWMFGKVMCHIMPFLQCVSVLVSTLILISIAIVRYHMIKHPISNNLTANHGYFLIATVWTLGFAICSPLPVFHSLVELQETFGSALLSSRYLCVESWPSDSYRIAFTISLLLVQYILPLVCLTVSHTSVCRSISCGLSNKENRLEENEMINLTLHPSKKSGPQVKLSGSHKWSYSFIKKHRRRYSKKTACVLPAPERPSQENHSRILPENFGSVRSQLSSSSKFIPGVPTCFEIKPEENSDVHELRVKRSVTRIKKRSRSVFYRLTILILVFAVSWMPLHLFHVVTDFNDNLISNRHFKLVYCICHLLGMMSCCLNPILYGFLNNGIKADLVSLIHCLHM

Y1R = target: Y1R; design: method as in PMID 28337321; settings: displacement of [^3H]UR-MK114, SK-N-MC neuroblastoma cells; cited from earlier work
[1] = Octanol-water distribution coefficient logD7.4, shake flask method; assay type: physicochemical; settings: 1-octanol/PBS, pH 7.4, PBS/1-octanol, read-out: logD7.4 experimental
Experimental: The lipophilicity of the radioligands was determined by the distribution coefficient logD7.4. The respective radioligand (10 µL, about 25 kBq) was added to a mixture of PBS (500 µL) and 1-octanol (500 µL) and the emulsion was vortexed for 1 min. After centrifugation 3 × 100 µL were taken of each layer and analysed by a γ-counter. The partition coefficient was calculated as logD7.4=log(cpmoctanol/cpmPBS) . Data were expressed as mean values ± SD from three experiments.

[2] = Radiotracer stability in human serum by radio-HPLC; assay type: in vitro ADME; settings: 37 °C
Experimental: The stability of ^18F-labelled compounds was determined in human serum. An aliquot of the radiotracer (5–10 MBq) was added to 200 µL human serum and incubated at 37 °C. Aliquots of 15 µL were taken after 5, 10, 15, 30, 45, 60, 120 and 180 min and quenched in 100 µL of 10% aqueous TFA. The samples were centrifuged (20000 × g, 2 min), and the supernatants were analysed by radio-HPLC (Chromolith RP-18e, 100 × 4.6 mm, 4 mL/min, 0–1 min 25% CH3CN (0.1% TFA) in water (0.1% TFA), 1–6 min 25–60%, 6–7 min 60–100%, 7–8 min 100%).

[3] = Biodistribution in healthy mice; assay type: in vivo, mouse; settings: at 30 and 90 min p.i.
Experimental: Biodistribution studies were conducted using female NMRI outbred mice (HsdWin:NMRI) purchased from Envigo (Horst, The Netherlands). Mice were kept in groups of four to five animals in individually ventilated cages in a twelve hours dark/light cycle with unlimited access to water and standard chow. At the age of eight to nine weeks six animals per radiotracer were injected with 2–4 MBq of the respective radiotracer under isoflurane anesthesia. Mice were sacrificed by cervical dislocation 30 or 90 min p.i. of the radiotracer. Blood as well as the organs/tissues lung, liver, kidneys, heart, spleen, brain, muscle, intestines, gall bladder and bones were harvested and analysed in the γ-counter. Samples were weighed and radioactivity in different tissues was calculated as percentage of the total injected dose per gram tissue (%ID/g).

MCF-7-Y1 tumour slices = assay: In-vitro autoradiography on MCF-7-Y1 tumour xenograft slices; assay type: binding, human; settings: blocking with 1 µM and 10 µM BIBP3226
Experimental: MCF-7-Y1 tumour bearing mice were sacrificed by cervical dislocation under deep isoflurane anesthesia and tumours were excised and subsequently frozen in a hexane/dry ice bath (−70 °C). MCF-7-Y1 tumour slices (14 µm) were prepared on a cryostat microtome HM 500 O (Microm, Walldorf) and thaw-mounted on Histobond® adhesive glass slides (Marienfeld, Lauda-Königshofen).
For autoradiography studies slides were thawed and pre-incubated for 15 min in incubation buffer (50 mM TRIS HCl, pH 7.4, containing 120 mM NaCl, 5 mM MgCl2,) at room temperature. Thereafter, 800 µL of incubation buffer, containing 0.1 MBq of the respective radiotracer were pipetted on the slide and incubated at room temperature for 60 min. For displacement studies BIBP3226 (1 µM or 10 µM) was added to the incubation buffer before pipetting on the slides. Afterwards slides were washed by placing in ice cold incubation buffer (3 × 2 min) followed by short dipping in ice cold distilled water. Slides were carefully dried in a stream of warm air and finally placed on an autoradiography film (Fuji Imaging Plate BAS-IP SR 2025 E, Fujifilm, Düsseldorf) overnight prior to readout (25 µm resolution) on the autoradiograph (HD-CR-35 Bio, Raytest, Straubenhardt) and analysis with the software AIDA (Raytest). Additional sections were stained with hematoxylin and eosin (H&E) for comparison with the autoradiography images.

[4] = Radioactive metabolites of Y1R radioligands in mouse blood; assay type: in vivo
Experimental: Nude mice were anesthetised with isoflurane and injected with the respective radiotracer (3–25 MBq) into the tail vein. After 5 min, animals were sacrificed by cervical dislocation and approx. 100 µL blood were collected from the abdomen and transferred into Li-heparinised Microvettes® (100 LH, Sarstedt). The same volume of aqueous urea (0.8 g/mL) was added and the Microvette® was centrifuged (2000 × g, 5 min). The supernatant was transferred to a 1.5 mL reaction vial, mixed with the same volume of 10% aqueous TFA and centrifuged (20000 × g, 5 min). This step was repeated once. A sample of the resulting supernatant (100 µL) was analysed by radio-HPLC using two methods (Chromolith RP-18e, 100 × 4.6 mm, 4 mL/min, 0–1 min 25% CH3CN (0.1%TFA) in water (0.1%TFA), 1–6 min 25–60%, 6–7 min 60–100%, 7–8 min 100%; Kromasil 100 C8 5 µm, 250 × 4.6 mm, 1.5 mL/min, 1–25 min 20–53.3% CH3CN (0.1% TFA) in water (0.1% TFA), 25–27 min 53.3–80%, 27–28 min 80–100%, 28–32 min 100%).

MCF-7-Y1 tumours = assay: Small animal PET in MCF-7-Y1 xenografted nude mice; assay type: in vivo, mouse; settings: 45–60 min p.i., blocking by co-injection of BIBP3226 1 mg/kg
Experimental: For the NPY Y1R xenograft model, female NMRI nude mice (HsdCpb:NMRI-Foxn1^nu) were purchased from Envigo (Horst, The Netherlands) at the age of three weeks. Mice were kept in groups of four to five animals in individually ventilated cages in a twelve hours dark/light cycle with unlimited access to water and standard chow. At the age of nine to ten weeks one 17β-estradiol pellet per animal (0.72 mg per pellet, 3 mm diameter) with a 60-day release time (Innovative Research of America, Sarasota, FL, USA) was subcutaneously implanted on the back under isoflurane anesthesia. After three days, approximately 10^6 MCF-7-Y1 tumour cells (in 50 µL PBS) were mixed with Matrigel (50 µL, BD Biosciences, Heidelberg) and then injected subcutaneously at the back. Tumour diameters and weight of the animals were recorded five times a week. Imaging studies were performed four weeks after inoculation of the cells.
Small animal PET scans were performed on an Inveon™ microPET scanner (Siemens Healthcare, Erlangen) under isoflurane anesthesia (3%). Tumour bearing mice (26–35 g, n = 2–3 for each radioligand) were intravenously injected into the tail vein with the respective radiotracer (1.5–4.2 MBq in about 100 µL of saline) under isoflurane anesthesia (3–4%). Static images were acquired for 15 min starting 45 min p.i. of the radiotracer. For displacement studies, the same mice were co-injected with the radiotracer ([^18F]12 and [^18F]13 only) and BIBP3226 (1 mg/kg). Images were corrected for decay and attenuation and MAP (iterative maximum a posteriori) images were reconstructed using the built-in software of the PET scanner. Evaluation of the MAP images was conducted using the software PMOD (version 3.6, PMOD Technologies LLC, Zürich). Regions of interests (ROIs) were drawn and radioactivity concentration within these regions was obtained from the mean values and calculated as percentage of the total injected dose per gram tissue (% ID/g).

[5] = Binding to human plasma proteins by gel filtration; assay type: in vitro ADME; settings: 37 °C, read-out: Free fraction in plasma
Experimental: The binding of ^18F-labelled compounds to plasma proteins was determined using gel filtration columns(illustra™ MicroSpin™ G-50 Columns, GE Healthcare Life Sciences, Freiburg). An aliquot of the radiotracer (approx. 100 kBq) was added to 200 µL of saline, and 100 µL of human plasma, respectively. Both samples were incubated at 37 °C for 10 min. MicroSpin™ columns were prepared according to the user instruction. Then 25 µL of the incubated radiotracer were given onto the columns and the devices were centrifuged (2000 × g, 2 min). Eluate and solid phase were analysed in the γ-counter (Wallac Wizard). The percentage of unbound radioligand was calculated as %free=cpmsolidphase/cpmsolidphase+cpmeluate . The sample in saline was used as control.

Compound: [^3H]propionyl-pNPY: tritiated radioligand used for competition binding at hY2R and hY5R
Kd (hY5R): 4.8 nM

Compound: NC(N)=NCCC[C@@H](NC(=O)C(c1ccccc1)c1ccccc1)C(=O)NCc1ccc(O)cc1 [BIBP3226]
Ki (Y1R): 1.3 nM

logD [1]: 1.74 ± 0.07 | Stability over 3 h in human serum [2]: >99% | kidney uptake [3]: about three times higher | radiometabolites in the blood ([4]; mouse): > 90% | stability in the blood in vivo (in words) ([4]; mouse blood samples taken early after radiotracer injection): underwent rapid degradation in the blood | intact radioligand in blood samples ([4]; mouse, 5 min p.i.): 10% | fraction unbound at 10 min [5]: 0.38
Compound: N/C(=N/C(=O)NCc1cn(CCOCC[18F])nn1)NCCC[C@@H](NC(=O)C(c1ccccc1)c1ccccc1)C(=O)NCc1ccc(O)cc1 [[^18F]12, (2R)‐5‐{[(1Z)‐Amino({[({1‐[2‐(2‐[^18F]fluoroethoxy)ethyl]‐1H‐1,2,3‐triazol‐4‐yl}methyl)carbamoyl]-imino})methyl]amino}‐2‐(2,2‐diphenylacetamido)‐N‐[(4‐hydroxyphenyl)methyl]pentanamide]
specific binding to MCF-7-Y1 tumour slices (autoradiography) (MCF-7-Y1 tumour slices): marked specific binding; also recorded: highest specific binding to Y1R-positive cells and to tumour slices | tumour visualisation / specific tumour accumulation in PET (MCF-7-Y1 tumours): displaceable and thus specific Y1R-mediated tumour acculuation in vivo; also recorded: enhanced and specific tumour uptake; also recorded: highest specific binding to the Y1R-positive tumour in vivo
